From patent US20070122501A1, “Formulations containing astragalus extracts and uses thereof” (Hong Kong University of Science and Technology, priority 2003, published 2007) come the findings set out here.

The test system of test [1] is late passage (PD40) neonatal keratinocytes. Nature of the test: Scratch (wound healing) assay in late passage / aging neonatal keratinocytes (FIGS. 7, 10). Type of test: cell-based, human. The conditions noted are these: FIG. 10. From the text:
(§1) Cell lines used in these experiments were obtained from Cascade Biologics, Inc. Neonatal keratinocytes (HEKneo-P) were obtained from a pool generated from three donors, designated HEKn(12), PD 8.46; HEKn(15), PD 9.3; and HEKn(16), PD 5.16. Adult keratinocytes were obtained from a single donor, designated HEKa(18). The terms “neonatal” and “adult” refer to the age of the donor, while the terms “young” and “aging” or “late passage” refer to the age of the cell culture, and correspond to the number of population doublings (indicated as PD no.).
(§2) Cells are plated in flasks (5×10^5 cells per flask) and cultured for two days in a humidified chamber at 5% CO2, 37° C. To create the “wound”, a 2 ml plastic pipette is gently dragged to “scratch” the cell surface. The ideal wound is approximately 2-3 mm wide and 50 mm long (along the long axis of the tissue culture flask). The cells are retreated with medium containing either vehicle (DMSO; control sample) or test compositions at multiple concentrations. […]
(§3) Amount of wound closure is determined by measuring the width of the wound over time for extract-treated samples relative to vehicle-treated or other control cells. […] Percentage of wound healing is calculated by the following formula: WH=100−[100×Wn/W0], where Wn is the width of the wound on day n and W0 is the width of the wound on day one (immediately after scratching).

In test [2] the test system is aging (PD34) adult keratinocytes. Nature of the test: Scratch (wound healing) assay in aging adult keratinocytes (FIGS. 6, 8, 9). In kind it is cell-based, human. The conditions noted are these: FIG. 8, comparison of extract and PDGF.
Source text: as §1, §2, §3

On to PDGF, for which, in test [1], the “wound closure after four days” value is “complete or near-complete wound closure”. Moreover, the “state of scratched cell layer by day 4” value in test [2] was “confluent or near-confluent”.
